In brackets after ≈: the same amount, converted by molar mass. Entries after “also recorded” stand apart in the source; their conditions may differ. Read-outs that look alike come from different tables or passages of the source.
Key:
D. suzukii = assay: Insecticidal activity on larvae and pupae development and adult emergence in pre-infested blueberries (dip); type: in vivo, Drosophila suzukii; settings: for Adults / Larvae / Pupae: pre-infested berries soaked 2 min in 1% solution, assessed after 10 days at room temperature, mean of three replicates (standard error)
Description: Impacts of MB and other compounds on D. suzukii control: To investigate the acute toxicity of some compounds of formula 1 against D. suzukii, a published procedure was followed (Cuthbertson, A. G. S., et al., Insects, 5: 488-498 (2014)). First, mixed-sex adults D. suzukii (100) were introduced into a plastic cage (30×30×30 cm) and reared on blueberries (100) for 4 days. After that, the infested blueberries were taken out from the cage. Half of the blueberries (50) were dipped in 100 mL aqueous emulsion of each compound listed in Table 1 at 1% concentration for 2 min as treatment, while the other half of the blueberries (50) were dipped in DI water for 2 min as blank control. Then the corresponding blueberries were separately taken out, placed in two different Petri dishes, and allowed to air dry for 2 h. Second, treatment and blank control blueberries were respectively stored in two plastic cups (32 oz) with closed caps and incubated at room temperature for 10 days. The emergence of adults was then subsequently assessed. The developments of larvae and pupae were further inspected by dissection of the treatment and blank control berries. Each treatment and blank control was repeated three times.

S. invicta workers [1] = settings: for mean mortality / increase of mean mortality compared with MB: dose 77.9 μg/ant, 24 h
Description: Fire ant bioassays were conducted in USDA, ARS Stoneville laboratory at 25° C., 80% R.H. with a 12:12 (L:D) photoperiod. Contact toxicities of MB and some compounds of formula 1 against fire ants: Topical application was used for contact toxicity bioassay. Only large workers were used for a purpose of relatively uniform body weight and ease of handling. For all compounds, acetone was used as a solvent. The solution was applied using a 0.779 μl capillary tube. Two experiments were conducted for assessing contact toxicity. […] In order to investigate the structure-activity relationship, LD50 values were also established for MB and EB. […] For each LD50 value, 5 doses of benzoates were used. Each dose was replicated 3 times. Each replicate consisted of 13 to 18 ants. Treated ants were placed in a 30-ml capped cup and dead ants were counted after 24 h.

H. halys nymphs [2] = settings: 24 hr, copied from previous research, cited from earlier work
[3] = Release rate (evaporation from cotton ball in tube); type: physicochemical; settings: room temperature, hood air flow 129 FPM
Description: Release rate: Release rate tests of selective compounds were carried out in the laboratory. 1 mL of each compound was loaded on a cotton ball in a polypropylene flex tube (1.5 mL Eppendorf micro-centrifuge tube, VWR International, Radnor, PA). The tubes were hung in the hood with air flow of 129 FPM. At 2 pm on each weekday, the tubes were weighed and recorded (Zhang, A., et al., Environ. Entomol., 37: 719-724 (2008)). Each treatment was replicated 5 times.

H. halys eggs = assay: Ovicidal toxicity, direct spray on eggs; type: in vivo; settings: eggs sprayed, 10 days
From the text: (§1) Ovicidal toxicities of MB and some compounds of formula 1: The aqueous solutions of one of the compounds of formula 1 with designated concentrations with different concentrations of active ingredient (AI) were separately stored in glass spray bottles according to a published procedure (Cuthbertson 2014). The eggs (10 for H. halys and 100 for P. xylostella) were laid on filter papers in Petri dishes. Different aqueous insecticidal solutions were sprayed on the surfaces of different eggs three times (˜0.5 mL) to completely cover the treatment areas. Then the Petri dishes were covered with lids and maintained in a fume hood for 10 days. The Petri dishes were then inspected for presence of nymph/larvae development or numbers of unhatched eggs.

L. dispar larvae = assay: Larvicidal toxicity, treated filter paper in Petri dish; type: in vivo; settings: for LC50 (95% CL): 1st stage larvae, 24 hr
Description: Toxicities of MB and some compounds of formula 1 on L. dispar larvae: The bioassays were carried out in plastic Petri dish loaded with filter paper, following a published procedure (Nielsen 2008). 600 μL acetone solution of one derivative with different concentrations was loaded onto the filter paper (90 mm diameter) evenly, and the filter paper was dried for 2 min and then put into the bottom of Petri dish. 10 L. dispar larvae were put onto the Petri dish and covered with a lid. 30 larvae were used for each amount. The mortality was assessed after 24 hr.

S. invicta workers [4] = assay: Fumigant toxicity in sealed glass flask; type: in vivo, Solenopsis invicta; settings: for LC50 / mortality at 1.43 µg/mL: Solenopsis invicta; for fumigant toxicity against S. invicta (in words): in vivo
Description: A 250-ml glass flask (the whole volume is 280 ml) was used to house worker ants in fumigant toxicity bioassays. Two micro-liter of acetone solution of the tested compound was applied onto a paraffin film, which was used to seal the flask with ants. The treated spot of the paraffin film faced the inside of the flask. The upper part of the flask was coated with Fluon® to prevent ants from contacting the test material. Two experiments were conducted. […] LC50 value was established using 5 dosages. Each dosage was replicated 3 times for each of 3 colonies. Each replicate consisted of 15 to 26 ants. Ants that could not stand by themselves were considered dead. Dead ants were counted after 24 h.

H. halys nymphs [5] = assay: Nymphicidal toxicity, treated filter paper in glass vial; type: in vivo; settings: for LC50 (95% CL): 24 hr
Description: Toxicities of MB, some compounds of formula 1, and commercial pesticides on H. halys nymphs: The bioassays were carried out in glass vials (20 mL), following a published procedure (Nielsen, A. L., et al., J. Econ. Entomol., 101: 1439-1442 (2008)). Filter paper was cut into round shape pieces (2.4 cm diameter). 50 μL acetone solution of one derivative or commercial pesticide with different concentrations was loaded onto the filter paper evenly, and the filter paper was dried for 1 min and then put into the bottom of vial. A small piece of green bean was put on the filter paper in the vial as food source. Different stages of H. halys nymphs were introduced into the vial and capped with a cotton ball. For each stage, 30 nymphs were used for each amount. For the nymphs of the first instar, 10 nymphs were put into 1 vial. For the nymphs of the second and third instar, 5 nymphs were put into 1 vial. For the nymphs of the fourth instar, 3 nymphs were put into 1 vial. For the nymphs of the fifth instar, 2 nymphs were put into 1 vial. The mortality was assessed after 24 hr.

Plutella xylostella eggs = assay: Ovicidal toxicity, direct spray on eggs; type: in vivo; settings: hatchability after 10 days; 0.05% and 0.1% concentrations (FIG. 3)
From the text: as §1

[6] = 24 h, read-out: mean LC50 value, mean over colonies, 24 h
[7] = 24 h, read-out: mean mortality, dosage 1.43 μg/ml, 24 h

| Compound | Adults (D. suzukii) | Larvae (D. suzukii) | Pupae (D. suzukii) | LD50 (S. invicta workers [1]; colony 1, 24 h) [μg/ant] | LD50 (S. invicta workers [1]; colony 2, 24 h) [μg/ant] | LD50 (S. invicta workers [1]; colony 3, 24 h) [μg/ant] | mean mortality (S. invicta workers [1]) [%] | first order evaporation rate constant k (exponent of fitted curve) [3] | LC50 (95% CL) (H. halys eggs) | LC50 (95% CL) (L. dispar larvae) | fumigant toxicity against S. invicta (in words) (S. invicta workers [4]) | increase of mean mortality compared with MB (S. invicta workers [1]) [times] | ovicidal toxicity against P. xylostella eggs (in words) (Plutella xylostella eggs) | LC50 (S. invicta workers [4]; 24 h, colony 1, 24 h) [µg/mL] | LC50 (S. invicta workers [4]; 24 h, colony 2, 24 h) [µg/mL] | LC50 (S. invicta workers [4]; 24 h, colony 3, 24 h) [µg/mL] | LC50 (S. invicta workers [4]; [6]) [µg/mL] | mortality at 1.43 µg/mL (S. invicta workers [4]; [7]) [%] | LC50 (95% CL) (H. halys nymphs [5]; 2nd stage nymphs) | further results |
| --- | --- | --- | --- | --- | --- | --- | --- | --- | --- | --- | --- | --- | --- | --- | --- | --- | --- | --- | --- | --- |
| COC(=O)c1ccccc1 [MB, methyl benzoate] | 0 | 0 | 0 | 149.39 | 93.65 | 128.45 | 7.67 | 0.162 | 0.020 (0.012-0.026) mg/cm^2 | 0.114 (0.091-0.134) mg/cm^2 | powerful fumigant toxicities |  |  |  |  |  |  |  |  | LC50 (95% CL) (H. halys nymphs [2]; 1st stage nymphs): 1.03 (0.93-1.10) μL/vial; LC50 (95% CL) (H. halys nymphs [2]; 2nd stage nymphs): 1.01 (0.86-1.12) μL/vial; LC50 (95% CL) (H. halys nymphs [2]; 3rd stage nymphs): 1.23 (1.12-1.33) μL/vial; LC50 (95% CL) (H. halys nymphs [2]; 4th stage nymphs): 2.39 (2.19-2.60) μL/vial; LC50 (95% CL) (H. halys nymphs [2]; 5th stage nymphs): 1.77 (1.60-1.93) μL/vial; LC50 (S. invicta workers [4]; 24 h, colony 1, 24 h, read-out: LC50): 0.77 µg/mL (≈ 5.66 µM); LC50 (S. invicta workers [4]; 24 h, colony 2, 24 h, read-out: LC50): 0.66 µg/mL (≈ 4.85 µM); LC50 (S. invicta workers [4]; 24 h, colony 3, 24 h, read-out: LC50): 0.82 µg/mL (≈ 6.02 µM); mortality at 1.43 µg/mL (S. invicta workers [4]; 24 h, dosage 1.43 μg/ml, 24 h, read-out: mean mortality): ~100%; LC50 (S. invicta workers [4]; 24 h, mean over colonies, 24 h, read-out: mean LC50 value): 0.75 µg/mL (≈ 5.51 µM); mean mortality (S. invicta workers [4]; dosage 1.43 μg/ml, 24 h): 100% |
| CCCCCOC(=O)c1ccccc1 [nPeB, n-pentyl benzoate] | 36.3(3.9) | 5.3(0.9) | 37.7(6.7) | 35.97 | 41.16 | 28.64 | 99.26 |  |  | 0.165 (0.118-0.208) mg/cm^2 |  | 13 | comparable toxicity comparing with MB |  |  |  |  |  |  | toxicity against H. halys nymphs (in words) (H. halys nymphs [5]; in vivo): did not show toxicities; insecticidal toxicity against D. suzukii (in words) (D. suzukii; 1% concentration on 4 days pre-infested blueberries, 10 days incubation): did not show any insecticidal activities; contact toxicity against S. invicta (in words) (S. invicta workers [1]; in vivo): comparable results; also recorded: potent contact toxicities |
| COC(=O)c1cccc(C)c1 [M3MB, methyl 3-methylbenzoate] | 0 | 0 | 0 | 70.32 | 107.48 | 67.73 |  |  | 0.016 (0.009-0.024) mg/cm^2 | 0.102 (0.083-0.121) mg/cm^2 |  |  |  | 0.62 (≈ 4.13 µM) | 0.7 (≈ 4.66 µM) | 0.63 (≈ 4.2 µM) | 0.65 (≈ 4.33 µM) | ~100 |  | LC50 (95% CL) (H. halys nymphs [5]; 4th stage nymphs): 2.433 (2.000-3.417) μL/vial |
| COC(=O)c1ccccc1OC [M2MOB, methyl 2-methoxybenzoate] | 0 | 0 | 0 | 67.73 | 96.43 | 78.34 | 55.74 | 8E-04 | 0.011 (0.006-0.015) mg/cm^2 | 0.230 (0.170-0.294) mg/cm^2 | significantly reduced | 7 |  |  |  |  |  |  | 1.530 (1.309-1.951) μL/vial | decreased toxicities compared with MB (L. dispar larvae; from LC50 values): 50% |
| C=COC(=O)c1ccccc1 [VB, vinyl benzoate] | 0 | 0 | 0 |  |  |  |  |  | 0.017 (0.010-0.024) mg/cm^2 | 0.065 (0.059-0.071) mg/cm^2 | powerful fumigant toxicities |  | highest toxicity | 0.95 (≈ 6.41 µM) | 0.77 (≈ 5.2 µM) | 0.96 (≈ 6.48 µM) | 0.89 (≈ 6.01 µM) | ~100 | 1.131 (0.757-1.337) μL/vial | larvicidal toxicity against L. dispar (in words) (L. dispar larvae; in vivo): highest larvicidal toxicity; times more toxic than commercial pesticide acetamiprid (L. dispar larvae; ratio of LC50 values): 3.4 times; times more toxic than commercial pesticide pyriproxyfen (L. dispar larvae; ratio of LC50 values): 1.3 times |

— patent US20230371508A1, “COMPOSITIONS AND METHODS FOR KILLING INSECT AND NON-INSECT PESTS” (The United States of America, as represented by the …, priority 2018, published 2023)
